What was measured:
Assay in all cases: chnB monooxygenase activity assay, NADPH oxidation at 340 nm, purified over-expressed enzyme
Assay type in all cases: biochemical
[1] = tested on: Rhodococcus sp. phi1 chnB monooxygenase; conditions: 1.25 mM substrate, pH 7.5; ND = No Activity Detected
Source text: (§1) Following amplification, the chnB gene fragments were cloned into pTrcHis-TOPO TA vectors with either an N-terminal tail or C-terminal tail, as provided by the vector sequence (N-terminal tail for Brevibacterium sp. HCU, Rhodococcus sp. phi1, Rhodococcus sp. phi2, and Arthrobacter sp. BP2 monooxygenases; C-terminal tail for Acinetobacter sp. SE19 and Acidovorax sp. CHX monooxygenases). These vectors were transformed into E. coli, with transformants grown in Luria-Bertani broth supplemented with ampicillin (100 ug/ml) and riboflavin (0.1 ug/ml) at 30° C. until the absorbance at 600 nm (A600) reached 0.5. When the A600 was reached, the temperature was shifted to 16° C.
(§2) The encoded monooxygenase sequences were expressed upon addition of IPTG to the culture media, 30 min after the temperature shift to 16° C. The cultures were grown further ovemight (14 hrs) and harvested by centrifugation in a cold centrifuge. The cells were treated with lysozyme (100 mg/ml) for 30 min on ice and sonicated. Following sonication, cell extracts were centrifuged and the supernatant was equilibrated with Ni-NTA resin (Qiagen, Valencia, Calif.) for 1 hr at 4° C. Protein bound resin was washed successively with increasing concentrations of imidazole buffer until the protein of interest was released from the resin. The purified protein was concentrated and the buffer exchanged to remove the imidazole. The protein concentration was adjusted to 1 ug/ml.
(§3) Compounds were selected on the basis of previous observations by van der Werf (J. Biochem. 347:693-701 (2000)) and Miyamoto et al. (Biochimica et Biophysica Acta 1251: 115-124 (1995)) and by searches for the ketone substructure.
(§4) All compounds were obtained from Sigma-Aldrich with only two exceptions. Levoglucosenone was obtained from Toronto Research Chemicals, Inc. and dimethyl-2-piperidone was prepared according to U.S. Pat. No. 6,077,955. For enzyme assays all compounds were dissolved to a concentration of 0.1 M in methanol, with the exceptions of norcamphor (dissolved in ethyl acetate), cyclododecanone, cycltridecanone and cyclopentadecanone (dissolved in propanol), and levoglucosenone (dissolved with acetone).
(§5) The monooxygenase activity of each over-expressed enzyme was assayed spectrophotometrically at 340 nm by monitoring the oxidation of NADPH. Assays were performed in individual quartz cuvettes, with a pathlength of 1 cm. […] An Ultrospec 4000 (Pharmacia Biotech, Cambridge, England) was used to read the absorbance of the samples over a two to ten minute time period and the SWIFT (Pharmacia Biotech) program was used to calculate the slope of the reduction in absorbance over time. For the Brevibactedum sp. […] Monooxygenase activity of each over-expressed enzyme is shown in Table 5, with respect to each ketone substrate. The specific activity values listed are given in umol/min/mg. The notation “ND” refers to “No Activity Detected”.

[2] = tested on: Brevibacterium sp. HCU chnB1 monooxygenase; conditions: 1.25 mM substrate, pH 7.5; ND = No Activity Detected
Source text: as §1, §2, §3, §4, §5

[3] = biological target: T1, Acinetobacter sp. SE19 chnB monooxygenase (Acinetobacter sp., UniProt Q9F7E4); conditions: 1.25 mM substrate, pH 7.5; ND = No Activity Detected
T1 construct: isolated full length BVMO genes from Brevibacterium sp; HCU, Acinetobacter SE19; C-terminal tail provided by the pTrcHis-TOPO vector (C); made in house; host or cells: E. coli
Source text: as §1, §2, §3, §4, §5

[4] = tested on: Brevibacterium sp. HCU chnB2 monooxygenase; conditions: 1.25 mM substrate, pH 7.5; rates multiplied by a factor of 3.25 to adjust for decrease in activity due to storage; ND = No Activity Detected
Source text: as §1, §2, §3, §4, §5

[5] = tested on: Acidovorax sp. CHX chnB monooxygenase; conditions: 1.25 mM substrate, pH 7.5; ND = No Activity Detected
Source text: as §1, §2, §3, §4, §5

[6] = tested on: Arthrobacter sp. BP2 chnB monooxygenase; conditions: 1.25 mM substrate, pH 7.5; ND = No Activity Detected
Source text: as §1, §2, §3, §4, §5

[7] = tested on: Rhodococcus sp. phi2 chnB monooxygenase; conditions: 1.25 mM substrate, pH 7.5; ND = No Activity Detected
Source text: as §1, §2, §3, §4, §5

Row | Structure (SMILES) | Specific Activity of Monooxygenase Enzymes Against Various Ketone Substrates, sp. phi1 chnB [1] [µmol/min/mg] | Specific Activity of Monooxygenase Enzymes Against Various Ketone Substrates, sp. HCU chnB1 [2] [µmol/min/mg] | Specific Activity of Monooxygenase Enzymes Against Various Ketone Substrates, sp. SE19 chnB [3] [µmol/min/mg] | Specific Activity of Monooxygenase Enzymes Against Various Ketone Substrates, sp. HCU chnB2 [4] [µmol/min/mg] | Specific Activity of Monooxygenase Enzymes Against Various Ketone Substrates, sp. CHX chnB [5] [µmol/min/mg] | Specific Activity of Monooxygenase Enzymes Against Various Ketone Substrates, sp. BP2 chnB [6] [µmol/min/mg] | Specific Activity of Monooxygenase Enzymes Against Various Ketone Substrates, sp. phi2 chnB [7] [µmol/min/mg]
1 | O=C1CCCCC1=O [1,2-cyclohexanedione] | 0.083 | 0.787 | 0.077 | 0.416 | 0.096 | 0.237 | –
2 | O=C1CCCC(=O)C1 [1,3-cyclohexanedione] | – | 0.237 | 0.237 | 0.978 | 0.032 | 0.397 | 0.141
3 | O=C1CCC(=O)CC1 [1,4-cyclohexanedione] | 3.302 | 3.405 | 8.346 | 1.123 | 0.794 | 3.994 | 6.150
4 | O=C1CCCCC1c1ccccc1 (centres unmarked) [2-phenyl-cyclohexanone] | 1.050 | 1.459 | 5.370 | 0.104 | 0.192 | – | 0.730
5 | CCCCCCCCCCCC(C)=O [2-tridecanone] | 0.160 | – | – | 0.187 | 0.096 | – | 1.690
6 | O=C1CCC1 [Cyclobutanone] | 0.102 | – | 0.109 | 0.374 | – | 0.128 | 0.154
7 | O=C1CCCCCCCCC1 [Cyclodecanone] | 0.077 | – | 0.320 | – | 0.160 | 0.166 | 0.205
8 | O=C1CCCCCCCCCCC1 [Cyclododecanone] | – | – | 0.122 | 0.229 | 0.051 | 0.198 | 0.122
9 | O=C1CCCCCCC1 [Cyclooctanone] | 0.627 | – | 1.984 | – | 0.410 | 0.646 | 0.141
10 | O=C1CCCCCCCCCCCCCC1 [Cyclopenta-decanone] | 0.122 | – | 0.109 | – | – | 0.122 | –
11 | O=C1CCCC1 [Cyclopentanone] | 1.370 | – | 3.034 | 1.331 | 0.621 | 1.491 | 2.451
12 | O=C1CCCCCCCCCCCC1 [Cyclotridecanone] | – | – | 0.166 | – | – | 0.147 | 0.109
13 | O=C1CCCCCCCCCC1 [Cycloundecanone] | – | – | 0.064 | 0.125 | 0.058 | 0.064 | 0.051
14 | O=C1C=C[C@H]2CO[C@@H]1O2 [Levoglucosenone] | 0.461 | – | 1.126 | – | 0.147 | 0.525 | 0.506
15 | OB(O)c1ccccc1 [Phenylboronic acid] | – | 1.606 | 0.102 | – | – | 0.192 | 0.109
16 | CCCCCCC(=O)CCCCCC [dihexyl ketone] | 0.160 | – | – | 0.270 | – | – | –
17 | C[S+](C)[O-] [dimethyl sulfoxide] | 0.518 | 0.230 | 0.819 | – | 0.358 | 0.422 | 0.544

From patent publication US20040267001A1, “Genes encoding baeyer-villiger monooxygenases” (priority 2001, published 2004)
